# Molecular target: T1, TAOK1 (Homo sapiens, UniProt Q7L7X3)
# T1 construct: purchased Thermo Fisher Scientific (Life Technologies) SelectScreen
# Test: SelectScreen LanthaScreen
# Assay type: binding
# Settings: read-out: % displacement
# Summary of the method: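 Percent values come from Thermo SelectScreen profiling of NU5455, combining activity and binding assays. CSF1R was run in Z'LYTE format at Km app ATP, and CAMK1 in Adapta format with ATP listed at 10.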
# T1 sequence (Q7L7X3 whole entry): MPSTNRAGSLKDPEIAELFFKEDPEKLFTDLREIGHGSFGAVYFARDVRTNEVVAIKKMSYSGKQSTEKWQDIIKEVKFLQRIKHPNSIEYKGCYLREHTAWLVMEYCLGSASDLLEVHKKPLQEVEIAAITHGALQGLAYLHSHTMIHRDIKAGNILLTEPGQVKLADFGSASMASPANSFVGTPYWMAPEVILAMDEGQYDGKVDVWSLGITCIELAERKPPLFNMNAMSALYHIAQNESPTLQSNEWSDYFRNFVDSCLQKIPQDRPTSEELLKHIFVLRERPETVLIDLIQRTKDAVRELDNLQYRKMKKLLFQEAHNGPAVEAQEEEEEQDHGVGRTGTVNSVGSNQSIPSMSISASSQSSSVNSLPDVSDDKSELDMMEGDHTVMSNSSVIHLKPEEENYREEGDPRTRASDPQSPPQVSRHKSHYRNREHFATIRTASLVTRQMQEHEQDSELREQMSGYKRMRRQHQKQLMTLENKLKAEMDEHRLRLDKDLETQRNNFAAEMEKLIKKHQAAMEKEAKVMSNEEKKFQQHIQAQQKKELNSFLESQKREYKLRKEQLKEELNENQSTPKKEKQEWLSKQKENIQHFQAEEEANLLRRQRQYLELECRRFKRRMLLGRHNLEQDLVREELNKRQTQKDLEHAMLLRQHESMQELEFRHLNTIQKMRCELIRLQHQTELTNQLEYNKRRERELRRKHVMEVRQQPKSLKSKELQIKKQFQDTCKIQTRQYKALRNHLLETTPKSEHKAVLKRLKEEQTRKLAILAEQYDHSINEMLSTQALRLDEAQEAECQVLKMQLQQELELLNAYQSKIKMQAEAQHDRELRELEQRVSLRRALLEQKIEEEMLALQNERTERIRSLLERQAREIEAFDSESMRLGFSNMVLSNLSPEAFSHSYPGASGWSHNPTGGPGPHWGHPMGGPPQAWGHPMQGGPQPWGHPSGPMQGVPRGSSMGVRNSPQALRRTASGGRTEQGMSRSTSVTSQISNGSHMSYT
compound,measurement,value
CN(C(=O)CN1CCOCC1)c1ccc2sc3c(-c4cccc5c(=O)cc(N6CC7CCC(C6)O7)oc45)cccc3c2c1 [NU5455],inhibition at 1 µM,3.7%

# Source: publication PMC6934184, “Selective DNA-PKcs inhibition extends the therapeutic index of localized radiotherapy and chemotherapy” (The Journal of Clinical Investigation, 2019)
